We go through one molecule from ChEMBL document CHEMBL3832052.

The data set can be described thus: clinical. The note with it: human, in vivo, po.

Regarding `Cc1cc(NS(=O)(=O)c2ccc(N)cc2)no1` [SULFAMETHOXAZOLE], the Tmax lay within 1 to 4 h.

As a reminder, the Tmax is the time at which the peak concentration occurs.
